Experimental data from patent US20240190889A1, “NEW CYCLOPENTA-THIENO-DIAZEPINE DERIVATIVES AS GABA A GAMMA1 POSITIVE ALLOSTERIC MODULATORS” (Hoffmann-La Roche Inc., priority 2021, published 2024).
Like-named read-outs stand apart in the source and are kept apart here.

What was measured:
[1] = target: human GABAA α1β3γ2 receptor (Homo sapiens (Human), UniProt P14867+P18507); assay: Radioligand binding assay, competition for [3H]Flumazenil, γ2-containing GABAA subtypes; conditions: for γ2/γ1 Selectivity Ratio: Ki α1β3γ2 (nM)/Ki α2β2γ1 (nM); for LogSel: Log[Ki α1β3γ2 (nM)/Ki α2β2γ1 (nM)]
Experimental: Membrane Preparation and Binding Assay for γ2-containing GABAA Subtypes
The affinity of compounds at GABAA γ2 subunit-containing receptors was measured by competition for [^3H]Flumazenil (81.1 Ci/mmol; Roche) binding to HEK293F cells expressing human (transiently transfected) receptors of composition α1β3γ2.
Harvested pellets from HEK293F cells expressing the different GABAA γ2 receptor subtypes were resuspended in Mannitol Buffer pH 7,2-7,4 and processed as described above for the cells expressing the GABAA γ1 subunit-containing receptors.
Assays were incubated to equilibrium for 1 hour at 4° C, and harvested onto GF/C uni-filters (Packard) by filtration using a Packard harvester and washing with ice-cold wash buffer (50 mM Tris; pH 7.5). After anhydrousing, filter-retained radioactivity was detected by liquid scintillation counting. Ki values were calculated using Excel-Fit (Microsoft) and are the means of two determinations.

[2] = target: human GABAA α1β2γ1 receptor (Homo sapiens (Human), UniProt P14867+Q8N1C3); assay: Radioligand binding assay, competition for [3H]RO7239181, γ1-containing GABAA subtypes
Experimental: (§1) Membrane Preparation and Binding Assay for γ1-containing GABAA Subtypes
(§2) The affinity of compounds at GABAA γ1 subunit-containing receptors was measured by competition for [^3H]RO7239181 (67.3 Ci/mmol: Roche) binding to membranes from HEK293F cells (ThermoFisher R79007) expressing human (transiently transfected) receptors of composition α5β2γ1, α2β2γ1, α1β2γ1.
(§3) Harvested pellets from HEK293F cells expressing the different GABAA receptor subtypes were resuspended in Mannitol Buffer pH 7.2-7.4 (Mannitol 0.29 M, Tricthylamine 10 mM. Acetic acid 10 mM. EDTA 1 mM plus protease inhibitors (20 tablets Complete. Roche Diagnostics Cat. No. 05 056 489 001 per liter)), washed two times and then resuspended at 1:10 to 1:15 dilution in the same buffer. Cell disruption was performed by stirring the suspension in a Parr vessel #4637 at 435 psi for 15 minutes, and then the suspensions were centrifuged at 1000×g for 15 minutes at 4° C. (Beckman Avanti J-HC: rotor JS-4.2). The supernatant (S1) was transferred in a 21 Schott flask and the pellet (P1) was resuspended with Mannitol Buffer up to 175 ml. The resuspended pellet was transferred into a 250 ml Corning centrifugal beaker and centrifuged at 1500 ×g for 10 minutes at 4° C. (Beckman Avanti J-HC: rotor JS-4.2). The supernatant (S1) was then transferred in the 21 Schott flask and the pellet was discarded. The supernatants (S1) were centrifuged in 500ml Beckman polypropylene centrifugal beaker at 15 000×g for 30 minutes at 4° C. (Beckman Avanti J-20 XP; rotor JLA-10.500). The pellet (P2) was resuspended with Mannitol Buffer 1:1 and frozen at −80° C. The supernatant (S2) was centrifuged in 100 ml Beckman polypropylene centrifugal tubes at 48000×g for 50 minutes at 4 °C (Beckman Avanti J-20 XP: rotor JA-18). The supernatant (S3) was discarded and the pellet (P3) was resuspended with 1:1 Mannitol Buffer. The P2 and P3 protein concentration was determined with the BIORAD Standard assay method with bovine serum albumin as standard and measured on the NANO-Drop 1000. The membrane suspension was aliquots (500μl per tube) and stored at −80° C. until required.
(§4) Membrane homogenates were resuspended and polytronised (Polytron PT1200E Kinematica AG) in Potassium Phosphate 10 mM, KCl 100 mM binding buffer at pH 7.4 to a final assay concentration determined with a previous experiment.
(§5) Radioligand binding assays were carried out in a volume of 200 μL (96-well plates) which contained 100 μL of cell membranes. […] Assays were incubated to equilibrium for 1 hour at 4° C. and then, membranes were filtered onto unifilter (96-well white microplate with bonded GF/C filters preincubated 20-50 minutes in 0.3% Polyethylenimine) with a Filtermate 196 harvester (Packard BioScience) and washed 4 times with cold Potassium Phosphate 10 mM pH 7.4. KCl 100 mM binding buffer. After anhydrousing, filter-retained radioactivity was detected by liquid scintillation counting. Ki values were calculated using Excel-Fit (Microsoft) and are the means of two determinations.

[3] = target: human GABAA α2β2γ1 receptor (Homo sapiens (Human), UniProt P47869+Q8N1C3); assay: as above
Experimental: as §1, §2, §3, §4, §5

[4] = target: h-GABA-A α2β2γ1 receptor expressed in Xenopus laevis oocytes (Homo sapiens (Human), UniProt P47869+Q8N1C3); assay: Two-electrode voltage clamp electrophysiology in Xenopus oocytes expressing GABAA receptors; type: cell-based; conditions: reference PAMs, GABA EC20
Text: Functional Expression of GABAA Receptors:
Xenopus Oocytes Preparation
Xenopus laevis oocytes at maturation stages V-VI were used for the expression of cloned mRNA encoding GABAA receptor subunits. Oocytes ready for RNA micro-injection were bought from Ecocyte, Castrop-Rauxel, Germany and stored in modified Barth's medium (composition in mM: NaCl 88, KCl 1, NaHCO3 2.4, HEPES 10, MgSO4 0.82, CaNO3 0.33, CaCl2 0.33, pH=7.5) at 20 C. until the experiment.
Xenopus Oocytes Microinjection
Oocytes were plated in 96-well plates for microinjection using the Roboinject automated instrument (MultiChannelSystems, Reutlingen, Germany). Approximately 50 nL of an aqueous solution containing the RNA transcripts for the subunits of the desired GABAA receptor subtype was injected into each oocyte. […] Oocytes were kept in modified Barth's medium (composition in mM: NaCl 88, KCl 1, NaHCO3 […], HEPES 10, MgSO4 0.82, CaNO3 0.33, CaCl2 0.33, pH=7.5) at 20° C. until the experiment.
Electrophysiological experiments were performed using the Roboocyte instrument (MultiChannelSystems, Reutlingen, Germany) on days 3 to 5 after the micro-injection of mRNA. During the experiment the oocytes were constantly superfused by a solution containing (in mM) NaCl 90, KCl 1, HEPES 5, MgCl: 1, CaCl, 1 (pH 7.4). Oocytes were impaled by two glass microelectrodes (resistance: 0.5-0.8 MS2) which were filled with a solution containing KCl 1M +K-acetate 1.5 M and voltage-clamped to −80 mV. The recordings were performed at room temperature using the Roboocyte two-electrode voltage clamp system (Multichannelsystem). After an initial equilibration period of 1.5 min GABA was added for 1.5 min at a concentration evoking approximately 20% of a maximal current response (EC20). After another rest interval of 2.5 min GABA was again added evoking a response of similar amplitude and shape. […] Current traces were recorded at a digitization rate of 10 Hz during and shortly before and after the GABA application.
Each compound and concentration was tested on at least 3 oocytes. Different oocytes were used for different compound concentrations.
For the analysis, the digitized current traces of the first and second GABA response were superimposed and, if necessary, rescaled to equal maximal amplitudes. The ratio between the two responses during the time interval of test compound application was calculated point by point. The extremum of the resulting “ratio trace” was taken as the efficacy (“Fold increase”) of the compound expressed as “% modulation of GABA EC” (100* (Fold increase-1)).

[5] = target: human GABAA α5β2γ1 receptor (Homo sapiens (Human), UniProt P31644+Q8N1C3); assay: Radioligand binding assay, competition for [3H]RO7239181, γ1-containing GABAA subtypes; conditions: membranes from HEK293F cells, mean of two determinations
Experimental: as §1
as §2, with “α1β2γ1. For better protein expression of the α2 subunit-containing receptors, the 28 amino acid long signal peptide (Metl to Ala28) of the human GABAA α2 subunit was substituted by the 31 amino acid long signal peptide (Met1 to Ser31) of human GABAA α5 subunit.” for “α1β2γ1.”
as §3, §4
Radioligand binding assays were carried out in a volume of 200 μL (96-well plates) which contained 100 μL of cell membranes. [^3H]RO7239181 at a concentration of 1.5 nM (α5β2γ1) or 20-30 nM (α1β2γ1, α2β2γ1) and the test compound in the range of [0.3-10000]33 10^−9 M. Nonspecific binding was defined by […] (α5β2γ1) and […] RO7239181 and typically represented less than 5% (α5β2γ1) and less than 20% (α1β2γ1, α2β2γ1) of the total binding. Assays were incubated to equilibrium for 1 hour at 4° C. and then, membranes were filtered onto unifilter (96-well white microplate with bonded GF/C filters preincubated 20-50 minutes in 0.3% Polyethylenimine) with a Filtermate 196 harvester (Packard BioScience) and washed 4 times with cold Potassium Phosphate 10 mM pH 7.4. KCl 100 mM binding buffer. After anhydrousing, filter-retained radioactivity was detected by liquid scintillation counting. Ki values were calculated using Excel-Fit (Microsoft) and are the means of two determinations.
Representative test results, obtained by the above described assay measuring binding affinity to HEK293 cells expressing human (h) receptors, are shown in the Table 1.

Row | Compound | Ki [1] | γ2/γ1 Selectivity Ratio [1] | LogSel [1] | Ki [2] | Ki [3] | potentiation of the GABA-induced current in α2β2γ1 GABAA receptor subtype expressing oocytes [4] | Ki ([3]; read-out: Ki h-GABAA α2β2γ1, membranes from HEK293F cells, [3H]RO7239181 20-30 nM, mean of two determinations) | Ki [5] | Ki ([1]; HEK293F cell membranes, [3H]Flumazenil 1 nM, mean of two determinations, read-out: Ki h-GABAA α1β3γ2)
1 | Cc1nnc2n1-c1sc3c(c1C(c1c(F)cccc1F)=N[C@H]2C)CCC3 [RE-C, (7S)-9-(2,6-difluorophenyl)-3,7-dimethyl-16-thia-2,4,5,8-tetrazatetracyclo [8.6.0.02,6.011,15]hexadeca-1(10),3,5,8,11(15)-pentaene, reference compound] | 17.2 nM | 0.84 | −0.07 | 2.59 nM | 20.4 nM | – | – | – | –
2 | Cc1nnc2n1-c1sc3c(c1C(c1ccccc1Cl)=NC2)CCC3 [RE-A, reference compound] | 6.6 nM | 0.38 | −0.42 | – | 17.5 nM | – | – | – | –
3 | Cc1nnc2n1-c1ccc(Cl)cc1C(c1ccccc1Cl)=NC2 [Triazolam, reference compound] | – | – | −1.5 | – | – | ~60% | – | – | –
4 | C[C@@H]1N=C(c2c(F)cccc2F)c2c(sc3c2C[C@H](C(F)F)C3)-n2c(CO)cnc21 [Example 22, [(7S,13S)-13-(difluoromethyl)-9-(2,6-difluorophenyl)-7-methyl-16-thia-2,5,8-triazatetracyclo [8.6.0.02,6.011,15]hexadeca-1(10),3,5,8,11(15)-pentaen-3-yl]methanol] | 2510 nM | – | 1.75 | – | 10.2 nM | – | 10.2 nM | 44.3 nM | –
5 | Cc1nnc2n1-c1ccc(Cl)cc1C(c1ccccc1)=NC2 [Alprazolam, reference compound] | – | 0.0050 | −2.3 | – | – | – | – | – | –
6 | CN1C(=O)CN=C(c2ccccc2F)c2cc([N+](=O)[O-])ccc21 [Flunitrazepam, reference compound] | – | – | – | – | – | ~60% | – | – | –
7 | Cc1ncc2n1-c1ccc(Cl)cc1C(c1ccccc1F)=NC2 [Midazolam, reference compound] | – | 0.0068 | −2.2 | – | – | ~60% | – | – | –
8 | CCOC(=O)C1Cc2sc3c(c2C1)C(c1ccccc1Cl)=NCc1nnc(C)n1-3 (centres unmarked) [RE-B, reference compound] | – | 1.66 | 0.22 | – | 734 nM | – | – | – | 1220 nM
